For assay [1], the system named is IFNα Kit225 Reporter (Kit225 T cells with a stably-integrated STAT-dependent luciferase reporter, stimulated with IFNα). Briefly: Kit225 T Cell Assay, IFNα-stimulated STAT-dependent luciferase reporter. In kind it is cell-based. Conditions: 200 U/mL human recombinant IFNα, 5-6 hours, luciferase expression. The method, boiled down:
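Kit225 T cells carrying a STAT-dependent luciferase reporter, in RPMI with 10% FBS, stimulated 5-6 h with 20 ng/mL human IL-23 or 200 U/mL human IFNα; luciferase luminescence read. Inhibition normalised to no-inhibitor (0%) and unstimulated (100%) wells; IC50 by non-linear regression.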
(In a reporter assay the amount or activity of a reporter protein is the signal.)

A short description of assay [2]: Kit225 T Cell Assay, IL-23-stimulated STAT-dependent luciferase reporter. In kind it is cell-based. Conditions: Kit225 T cells, 20 ng/mL human recombinant IL-23, 5-6 hours, luciferase expression.

Results on ten compounds are retold here after US12473290B2, “Imidazopyridazine compounds useful as modulators of IL-12, IL-23 and/or IFN alpha responses” (BRISTOL-MYERS SQUIBB COMPANY, priority 2019, dated 2025).

The IC50 is the concentration that gives 50% inhibition. Consider `CC(C)(C)NC(=O)c1ccc(Nc2cc(NCC3CC3)nn3c(C#N)cnc23)nc1` [Example 52, N-tert-butyl-6-({3-cyano-6-[(cyclopropylmethyl)amino]imidazo[1,2-b]pyridazin-8-yl}amino)pyridine-3-carboxamide], for which the IC50 in assay [1] worked out at 0.08 µM; in assay [2] it was 0.14 µM.
The matching figures for `N#Cc1cnc2c(Nc3ccc(C(=O)N[C@@H]4CCC[C@@H]4O)cn3)cc(NCC3CC3)nn12` [Example 53, 6-({3-cyano-6-[(cyclopropylmethyl)amino]imidazo[1,2-b]pyridazin-8-yl}amino)-N-[(1R,2S)-2-hydroxycyclopentyl]pyridine-3-carboxamide]: 0.14 µM and 0.24 µM.
On to `CC(C)N1CCN(c2cccc(Nc3cc(N[C@@H]4CCCC[C@H]4O)nn4c(C#N)cnc34)n2)CC1` [Example 54, 6-{[(1R,2R)-2-hydroxycyclohexyl]amino}-8-({6-[4-(propan-2-yl)piperazin-1-yl]pyridin-2-yl}amino)imidazo[1,2-b]pyridazine-3-carbonitrile], for which the IC50 in assay [1] was determined as 0.88 µM; in assay [2], 0.63 µM.
As for `N#Cc1cnc2c(Nc3cccc(N4CCN(CCO)CC4)n3)cc(N[C@@H]3CCCC[C@H]3O)nn12` [Example 55, 6-{[(1R,2R)-2-hydroxycyclohexyl]amino}-8-({6-[4-(2-hydroxyethyl)piperazin-1-yl]pyridin-2-yl}amino)imidazo[1,2-b]pyridazine-3-carbonitrile], the IC50 in assay [1] stood at 0.62 µM; in assay [2] it was 0.53 µM.
For `N#Cc1cnc2c(Nc3cccc(N4CCOCC4=O)n3)cc(N[C@@H]3CCCC[C@H]3O)nn12` [Example 56, 6-{[(1R,2R)-2-hydroxycyclohexyl]amino}-8-{[6-(3-oxomorpholin-4-yl)pyridin-2-yl]amino}imidazo[1,2-b]pyridazine-3-carbonitrile] the same measures were 0.38 µM and 0.43 µM.
For `CCC1(C)NC(=O)N(c2cccc(Nc3cc(N[C@@H]4CCCC[C@H]4O)nn4c(C#N)cnc34)n2)C1=O` (stereo partly drawn) [Example 57, 8-{[6-(4-ethyl-4-methyl-2,5-dioxoimidazolidin-1-yl)pyridin-2-yl]amino}-6-{[(1R,2R)-2-hydroxycyclohexyl]amino}imidazo[1,2-b]pyridazine-3-carbonitrile] the same measures were 0.75 µM and 0.92 µM.
As to `N#Cc1cnc2c(Nc3cccc(N4C(=O)NC5(CCCCC5)C4=O)n3)cc(N[C@@H]3CCCC[C@H]3O)nn12` [Example 58, 8-[(6-{2,4-dioxo-1,3-diazaspiro[4.5]decan-3-yl}pyridin-2-yl)amino]-6-{[(1R,2R)-2-hydroxycyclohexyl]amino}imidazo[1,2-b]pyridazine-3-carbonitrile], the values for the IC50 in assay [1] and in assay [2] were 0.81 µM and 0.55 µM, respectively.
Regarding `N#Cc1cnc2c(Nc3cccc(N4CCCCCC4=O)n3)cc(N[C@@H]3CCCC[C@H]3O)nn12` [Example 59, 6-{[(1R,2R)-2-hydroxycyclohexyl]amino}-8-{[6-(2-oxoazepan-1-yl)pyridin-2-yl]amino}imidazo[1,2-b]pyridazine-3-carbonitrile], the results for the IC50 in assay [1] and in assay [2] were 0.93 µM and 0.66 µM, respectively.
The matching figures for `CC(C)C(=O)N1CCN(c2cccc(Nc3cc(N[C@@H]4CCCC[C@H]4O)nn4c(C#N)cnc34)n2)CC1` [Example 60, 6-{[(1R,2R)-2-hydroxycyclohexyl]amino}-8-({6-[4-(2-methylpropanoyl)piperazin-1-yl]pyridin-2-yl}amino)imidazo[1,2-b]pyridazine-3-carbonitrile]: 0.37 µM and 0.35 µM.
For the compound `N#Cc1cnc2c(Nc3cccc(-n4cccn4)n3)cc(N[C@@H]3CCCC[C@H]3O)nn12` [Example 61, 6-{[(1R,2R)-2-hydroxycyclohexyl]amino}-8-{[6-(1H-pyrazol-1-yl)pyridin-2-yl]amino}imidazo[1,2-b]pyridazine-3-carbonitrile], the results for the IC50 in assay [1] and in assay [2] were 0.45 µM and 0.94 µM, respectively.
